The source of these data is ChEMBL document CHEMBL5215003, “Evaluating the in Vitro Efficacy of Quassinoids from Eurycoma longifolia and Eurycoma harmandiana against Common Cold Human Coronavirus OC43 and SARS-CoV-2 Using In-Cell Enzyme-Linked Immunosorbent Assay” (J Nat Prod, 2022).

Values joined by “and” are separate entries in the source; they are usually repeats but may differ in a detail not shown here. Equal values may be shown once.

Data set [1] in a line: Cytotoxicity against human HCT-8 cells assessed as redcution in cell viability incubated for 96 hrs by PrestoBlue reagent based assay. Format: toxicity.
Data set [2] in a line: Cytotoxicity against African green monkey Vero cells assessed as reduction in cell viability incubated for 48 hrs by PrestoBlue reagent based assay. The data set is classed as toxicity. As to conditions: chlorocebus sabaeus.
Data set [3] in a line: Cytotoxicity against human Calu-3 cells assessed as reduction in cell viability incubated for 48 hrs by PrestoBlue reagent based assay. The data set is classed as toxicity.
The nature of data set [4]: Cytotoxicity against human HepG2 cells assessed as reduction in cell viability incubated for 48 hrs by PrestoBlue reagent based assay. Format: toxicity.
Data set [5] can be described thus: Cytotoxicity against human MRC5 cells assessed as reduction in cell viability incubated for 48 hrs by PrestoBlue reagent based assay. The data set is classed as toxicity.
Data set [6] is described as follows: Antiviral activity against HCoV-OC43 infected in human HCT-8 cells assessed as inhibition of viral growth at 10 uM incubated for 4 days by ELISA analysis relative to control. Format: functional, Human coronavirus OC43. Details: scale not given: the % may be the effect or the level left. As to conditions: time 4 day. For orientation: ELISA stands for enzyme-linked immunosorbent assay.

In data set [7] the test system is HCT-8. As to the kind of experiment: Cytotoxicity against human HCT-8 cells assessed as redcution in cell viability at 10 uM incubated for 96 hrs by PrestoBlue reagent based assay relative to control. Format: toxicity. The conditions noted are these: hct-8, 96 h.
A short description of data set [8]: Selectivity index, ratio of CC50 for cytotoxicity against human HCT-8 cells to IC50 for antiviral activity against HCoV-OC43 infected in human HCT-8 cells. The conditions noted are these: read-out: Ratio CC50/IC50. Format: toxicity, cell-based.
Data set [9] in a line: Selectivity index, ratio of CC50 for cytotoxicity against African green monkey Vero cells to IC50 for antiviral activity against SARS-CoV-2 infected in African green monkey Vero cells. The data set is classed as toxicity, cell-based. As to conditions: read-out: Ratio CC50/IC50.
For data set [10], the system named is SARS-CoV-2. As to the kind of experiment: Antiviral activity against SARS-CoV-2 infected in African green monkey Vero cells assessed as inhibition of viral growth incubated for 2 days by ELISA analysis. The conditions noted are these: Severe acute respiratory syndrome coronavirus 2, Vero, 48 h. The data set is classed as functional, organism-based.
A short description of data set [11]: Antiviral activity against HCoV-OC43 infected in human HCT-8 cells assessed as inhibition of viral growth incubated for 4 days by ELISA analysis. Format: functional, cell-based, Human coronavirus OC43. As to conditions: Betacoronavirus 1, HCT-8, 96 h.
In data set [12] the test system is SARS-CoV-2. As to the kind of experiment: microbe, parasite or virus in culture. The data set is classed as functional, organism-based, Vero E6. As to conditions: Severe acute respiratory syndrome coronavirus 2, Vero C1008.

As usually defined, the CC50 is the concentration that lowers cell viability or growth by half. On to `O=C(O)CCc1nccc2c1[nH]c1ccccc12`, for which the CC50 at 96 h in data set [1] was greater than 100 µM. Moreover, the CC50 at 48 h in data set [2], in data set [3], in data set [4] and in data set [5] was greater than 100 µM throughout. Besides, the Activity in [6] is less than 20%; in data set [7] it was 108.05%.

The term IC50 denotes the concentration that gives 50% inhibition. On to `CC1=CC(=O)[C@@H](O)[C@]2(C)C3[C@@H](O)[C@@H]4OC(=O)[C@@H]([C@H]4C)[C@]3(C)C(=O)C[C@@H]12` (some centres undefined), for which, in [1], the CC50 at 96 h turned out to be 58.9 µM. The selectivity ratio in [8] came out at 159; in data set [9], 112. Also, the CC50 at 48 h in [2] was 57.1 µM; in data set [3], 41.9 µM; in [4], greater than 100 µM; in data set [5], 31.2 µM. The IC50 in data set [10] was 510 nM and 0.18 µg/mL; in data set [11] it was 0.37 µM. Moreover, the Activity in data set [6] worked out at 90.27%; in data set [7] it was 71.14%.

Turning to `CC1=CC(=O)[C@@H](O)[C@]2(C)[C@H]3[C@]4(O)OC[C@@]35[C@@H](C[C@@H]12)OC(=O)C[C@H]5[C@](C)(O)[C@H]4O`, the CC50 at 96 h in [1] came out at 6.65 µM. Also, the values for the selectivity ratio in data set [8] and in [9] were 20.8 and 61, respectively. For the same compound, the CC50 at 48 h in data set [2] came to 26.2 µM; in data set [3], 98.7 µM; in data set [4] it was 86.7 µM; in [5] it was 9.99 µM. Further, the IC50 in data set [10] is 430 nM and 0.16 µg/mL; in [11], 0.32 µM. The Activity in [6] is 84.54%; in [7] it was 56.66%.

Regarding `COC(=O)[C@@]12OC[C@]34[C@H]([C@@H](O)[C@@H]1O)[C@@]1(C)CC(=O)C(O)=C(C)[C@@H]1C[C@H]3OC(=O)[C@H](OC(=O)CC(C)C)[C@@H]24` [BRUCEINE A], in data set [12], half-maximal inhibition (IC50) was put at 0.011 µM.

In the case of `CCC(CC)COC(=O)[C@H](C)N[P@](=O)(OC[C@H]1O[C@@](C#N)(c2ccc3c(N)ncnn23)[C@H](O)[C@@H]1O)Oc1ccccc1` [REMDESIVIR], the CC50 at 96 h in data set [1] was 53.2 µM. Also, the results for the selectivity ratio in data set [8] and in [9] were 166 and greater than 4.44, respectively. Also, the CC50 at 48 h in [2] is greater than 100 µM; in [3], greater than 100 µM; in [4], 52.6 µM; in [5], greater than 100 µM. Moreover, the results for the concentration for half-maximal inhibition (IC50) in data set [10] and in data set [11] were 22.5 µM and 0.32 µM, respectively. Further, the values for the Activity in data set [6] and in [7] were 92.45% and 96.21%, respectively.

Consider `O=c1ccc2nccc3c4ccc(O)cc4n1c23`, for which the CC50 at 96 h in [1] came out at 60.9 µM. The CC50 at 48 h in [2], in data set [3], in [4] and in data set [5] was greater than 100 µM in each case. Besides, the Activity is less than 20% in [6] and 49.3% in [7].

Regarding `C=C1[C@@H](O)[C@@]2(O)OC[C@]34[C@H]2[C@@]2(C)[C@H](O)C(=O)C=C(C)[C@@H]2C[C@H]3OC(=O)[C@H](O)[C@@]14O` [EURYCOMANONE], the CC50 at 96 h in data set [1] amounted to 59.2 µM. Moreover, the values for the selectivity ratio in data set [8] and in data set [9] were 13.2 and greater than 6.68, respectively. Besides, the CC50 at 48 h in [2] is greater than 100 µM; in data set [3], 88.1 µM; in data set [4], greater than 100 µM; in data set [5] it was greater than 100 µM. Besides, the IC50 in data set [10] is 15 µM and 6.11 µg/mL; in data set [11] it was 4.47 µM. The results for the Activity in [6] and in data set [7] were 57.93% and 72.16%, respectively.

As to `O=c1ccc2nccc3c4ccc(O[C@@H]5O[C@H](CO)[C@@H](O)[C@H](O)[C@H]5O)cc4n1c23`, in data set [1], the CC50 at 96 h turned out to be 33.8 µM. The CC50 at 48 h in [2], in [3], in data set [4] and in [5] was greater than 100 µM each time. For the same compound, the Activity is less than 20% in [6] and 53.28% in data set [7].

Regarding `CC1=CC(=O)[C@@H](O)[C@]2(C)[C@H]3[C@]4(O)OC[C@@]35[C@@H](C[C@@H]12)OC(=O)[C@H](O)[C@@]5(O)[C@]1(CO1)[C@H]4O`, the CC50 at 96 h in data set [1] was greater than 100 µM. In addition, the selectivity ratio in data set [8] was greater than 17; in data set [9] it was greater than 10.7. In addition, the CC50 at 48 h in data set [2], in data set [3], in data set [4] and in [5] was greater than 100 µM throughout. Besides, the IC50 in data set [10] was 9.39 µM and 3.98 µg/mL; in data set [11], 5.88 µM. In addition, the Activity in data set [6] worked out at 61.73%; in data set [7] it was 100.88%.

Turning to `COc1ccc2c(c1)[nH]c1c(CCC(=O)O)nccc12`, the CC50 at 96 h in data set [1] was 79 µM. Moreover, the CC50 at 48 h in [2], in data set [3], in data set [4] and in data set [5] was greater than 100 µM each time. Moreover, the Activity in [6] is less than 20%; in [7], 108.23%.

Regarding `CC1=CC(=O)[C@@H](O)[C@]2(C)[C@H]3[C@]4(O)OC[C@@]35[C@@H](C[C@@H]12)OC(=O)[C@H](O)[C@@]5(O)[C@](C)(O)[C@H]4O`, the CC50 at 96 h in data set [1] turned out to be 48.7 µM. Further, the selectivity ratio is 195 in data set [8] and greater than 20.7 in data set [9]. Also, the half-maximal cytotoxic concentration (CC50) at 48 h was greater than 100 µM in data set [2], greater than 100 µM in data set [3], greater than 100 µM in [4] and 54.3 µM in [5]. Further, the half-inhibitory concentration (IC50) in data set [10] is 4.84 µM and 1.69 µg/mL; in data set [11] it was 0.25 µM. In addition, the Activity came to 93.71% in data set [6] and 70.13% in [7].

As for `O=C(O)CCc1nccc2c1[nH]c1cc(O)ccc12`, in [1], the CC50 at 96 h came to 50.1 µM. The CC50 at 48 h in data set [2], in data set [3], in [4] and in data set [5] was greater than 100 µM each time. Also, the Activity is recorded as less than 20% in data set [6] and 108.23% in data set [7].

In the case of `C=C1CC[C@@H]2[C@](C)(CO)[C@H](O)CC[C@@]2(C)[C@@H]1C/C=C1/C(=O)OC[C@H]1O` [ANDROGRAPHOLIDE], the Activity worked out at 60.4% in [6] and 93.47% in data set [7].

In the case of `O=c1ccc2nccc3c4ccccc4n1c23` [CANTHIN-6-ONE], the CC50 at 96 h in data set [1] was determined as 42.4 µM. For the same compound, the CC50 at 48 h is greater than 100 µM in [2], greater than 100 µM in data set [3], 85.7 µM in data set [4] and 91.2 µM in [5]. Besides, the Activity in [6] was less than 20%; in [7] it was 55.55%.

`COc1ccc2c3ccnc4ccc(=O)n(c2c1)c43`: the CC50 at 96 h in data set [1] stood at 21.1 µM. In addition, the 50% cytotoxic concentration (CC50) at 48 h in data set [2], in [3], in data set [4] and in data set [5] was greater than 100 µM throughout. Moreover, the Activity in data set [6] was less than 20%; in [7], 33.49%.

For `COC(=O)[C@@]12OC[C@]34[C@H]([C@@H](O)[C@@H]1O)[C@@]1(C)CC(=O)C(O)=C(C)[C@@H]1C[C@H]3OC(=O)[C@H](OC(=O)C=C(C)C)[C@@H]24`, half-maximal inhibition in data set [12] (IC50) required 0.049 µM.
